Measurements as given in patent US10500226B2, “Alginate compositions and uses thereof” (Hadasit Medical Research Services and Development Ltd., priority 2012, dated 2019).

Test system: serum ALT (alanine aminotransferase)
Test: Concanavalin A mouse model: serum ALT
Format: in vivo, C57BL/6 (B6) mice
Description: Injection of the T-cell mitogenic plant lectin concanavalin A (Con A) to non-sensitized mice results in hepatic apoptosis that precedes necrosis. The concanvalin A (Con A) model is a widely utilized mouse model, which mimics many aspects of human autoimmune hepatitis. It induces a massive liver necrosis in mice, simultaneously with lymphocyte infiltration into the liver, high levels of apoptotic hepatocytes and elevated serum alanine aminotransferase (ALT) and aspartate aminotransferase (AST). The liver injury is mediated by natural killer T (NKT) cells. Several apoptosis-related effector molecules, IFN-γ and TNF-α take part in the NKT cell-mediated liver injury. The immune-mediated liver injury which develops in the Con A model is very rapid, taking less than 48 hours. The peak for liver enzymes and pro-inflammtory cytokines is after less than 15 hours, making the model particularly useful for screening anti-inflammatory agents.
Tested solutions were administered intraperitoneally by injection of a volume of 200 μl per mouse or by administration per os of 250 μl per mouse, 1 hour before concanavalin A (Con A) administration. Saline (0.15 M NaCl) served as a negative control test solution.
Con A was dissolved at a concentration of 16 mg/kg in 200 μl of 50 mM Tris (pH 7), with 150 mM NaCl, and 4 mM CaCl2, and injected (at a dose of 0.4 mg/mouse) intravenously into the tail vein of mice. Sera from individual mice were obtained 6, 24 and 48 hours (14 hours in some experiments) after Con A injection. All mice were sacrificed after 48 hours (14 hours in some experiments).
Serum albumin levels after 48 hours were measured by an automatic analyzer.
The solutions were administered intraperitoneally to adult male C57BL mice at a dose of 200 μl per mouse. One hour later, the mice were challenged with an intravenous injection of concanavalin A (Con A), as described hereinabove. […] Each treatment group contained 4-5 mice. Serum levels of ALT, albumin, and the pro-inflammatory cytokines IL-6 and interferon-γ (IFNγ) were determined as described hereinabove.

Compound: C[C@@H]1C[C@H]2[C@@H]3CCC4=CC(=O)C=C[C@]4(C)[C@@]3(F)[C@@H](O)C[C@]2(C)[C@@]1(O)C(=O)CO [Dexamethasone]
- serum ALT levels (2% solutions i.p., 14 hours after Con A administration): 203±14 units/liter
- Serum levels of ALT (Table 3, 200 μl i.p. 1 hour before Con A (dexamethasone per os), 6 hours after Con A): 146 ± 50 units/liter
- Serum levels of ALT (Table 3, 200 μl i.p. 1 hour before Con A (dexamethasone per os), 24 hours after Con A): 162 ± 50 units/liter
- Serum levels of ALT (Table 3, 200 μl i.p. 1 hour before Con A (dexamethasone per os), 48 hours after Con A): 69 ± 19 units/liter
- Serum levels of ALT (Table 4 (hyaluronan comparison), i.p. before Con A, 6 hours after Con A): 83 ± 21 units/liter
- Serum levels of ALT (Table 4 (hyaluronan comparison), i.p. before Con A, 24 hours after Con A): 68 ± 4 units/liter
- Serum levels of ALT (Table 4 (hyaluronan comparison), i.p. before Con A, 48 hours after Con A): 76 ± 23 units/liter
- Serum levels of ALT (Table 5 (biotinylated alginate, 2%), before Con A, 6 hours after Con A): 74 ± 5 units/liter
- Serum levels of ALT (Table 5 (biotinylated alginate, 2%), before Con A, 24 hours after Con A): 62 ± 14 units/liter
- Serum levels of ALT (Table 5 (biotinylated alginate, 2%), before Con A, 48 hours after Con A): 65 ± 16 units/liter
- Serum levels of ALT (Table 6 (γ-irradiated alginate comparison), 6 hours after Con A): 28 ± 10 units/liter
- Serum levels of ALT (Table 6 (γ-irradiated alginate comparison), 24 hours after Con A): 126 ± 37 units/liter
- Serum levels of ALT (Table 6 (γ-irradiated alginate comparison), 48 hours after Con A): 68 ± 7 units/liter
- Serum levels of ALT (Table 7, per os 250 μl 1 hour before Con A, 6 hours after Con A): 46 ± 6 units/liter
- Serum levels of ALT (Table 7, per os 250 μl 1 hour before Con A, 24 hours after Con A): 65 ± 10 units/liter
- Serum levels of ALT (Table 7, per os 250 μl 1 hour before Con A, 48 hours after Con A): 139 ± 26 units/liter
- Serum levels of ALT (Table 8, per os, repeat with other alginates, 6 hours after Con A): 33 ± 12 units/liter
- Serum levels of ALT (Table 8, per os, repeat with other alginates, 24 hours after Con A): 37 ± 10 units/liter
- Serum levels of ALT (Table 8, per os, repeat with other alginates, 48 hours after Con A): 31 ± 5 units/liter
